Data on 39 compounds can be found in ChEMBL document CHEMBL1137334 (J Med Chem, 2006).

SMILES strings stand for the structures. Converted amounts (≈) assume the structure as drawn.

Data set [1] can be described thus: AUC (0-24h) in mouse at 20 mg/kg, po. It is filed as ADME, organism-based. On the set-up: time < 24 hr, dose 20 mg/kg, route oral. As to conditions: plasma.
The test system of data set [2] is A549. Description: Inhibition of A549 cell migration by microdroplet migration assay. It is filed as functional, cell-based. As to conditions: Homo sapiens.
The target in data set [3] is Proto-oncogene tyrosine-protein kinase Src (Homo sapiens, UniProt P12931).
Description: Inhibition of human c-Src in NIH3T3 cells
Data set [4] addresses Vascular endothelial growth factor receptor 2 (Homo sapiens, UniProt P35968). Description: Inhibition of KDR.
Data set [5] is described as follows: Dissociation constant, pKa of the basic side chain of compound. It is filed as physicochemical.
The nature of data set [6]: Lipophilicity, log D at pH 7.4. It is filed as physicochemical. As to conditions: buffer.
Data set [7] can be described thus: Aqueous solubility at pH 7.4. It is filed as physicochemical.
Data set [8] in a line: Percent of unbound ligand in rat plasma. It is filed as ADME, organism-based.
The species named for data set [9] is Canis familiaris. In words: Half life in male dog. As to conditions: in vivo. It is filed as ADME, organism-based, Canis lupus familiaris.
Data set [10] is filed under the species Canis familiaris. Description: Volume of distribution in male dog. It is filed as ADME, organism-based, Canis lupus familiaris. The conditions noted are these: in vivo.
A short description of data set [11]: Bioavailability in male dog. The conditions noted are these: in vivo. It is filed as ADME, organism-based, Canis lupus familiaris.

Vascular endothelial growth factor receptor 2, sequence (P35968 whole entry): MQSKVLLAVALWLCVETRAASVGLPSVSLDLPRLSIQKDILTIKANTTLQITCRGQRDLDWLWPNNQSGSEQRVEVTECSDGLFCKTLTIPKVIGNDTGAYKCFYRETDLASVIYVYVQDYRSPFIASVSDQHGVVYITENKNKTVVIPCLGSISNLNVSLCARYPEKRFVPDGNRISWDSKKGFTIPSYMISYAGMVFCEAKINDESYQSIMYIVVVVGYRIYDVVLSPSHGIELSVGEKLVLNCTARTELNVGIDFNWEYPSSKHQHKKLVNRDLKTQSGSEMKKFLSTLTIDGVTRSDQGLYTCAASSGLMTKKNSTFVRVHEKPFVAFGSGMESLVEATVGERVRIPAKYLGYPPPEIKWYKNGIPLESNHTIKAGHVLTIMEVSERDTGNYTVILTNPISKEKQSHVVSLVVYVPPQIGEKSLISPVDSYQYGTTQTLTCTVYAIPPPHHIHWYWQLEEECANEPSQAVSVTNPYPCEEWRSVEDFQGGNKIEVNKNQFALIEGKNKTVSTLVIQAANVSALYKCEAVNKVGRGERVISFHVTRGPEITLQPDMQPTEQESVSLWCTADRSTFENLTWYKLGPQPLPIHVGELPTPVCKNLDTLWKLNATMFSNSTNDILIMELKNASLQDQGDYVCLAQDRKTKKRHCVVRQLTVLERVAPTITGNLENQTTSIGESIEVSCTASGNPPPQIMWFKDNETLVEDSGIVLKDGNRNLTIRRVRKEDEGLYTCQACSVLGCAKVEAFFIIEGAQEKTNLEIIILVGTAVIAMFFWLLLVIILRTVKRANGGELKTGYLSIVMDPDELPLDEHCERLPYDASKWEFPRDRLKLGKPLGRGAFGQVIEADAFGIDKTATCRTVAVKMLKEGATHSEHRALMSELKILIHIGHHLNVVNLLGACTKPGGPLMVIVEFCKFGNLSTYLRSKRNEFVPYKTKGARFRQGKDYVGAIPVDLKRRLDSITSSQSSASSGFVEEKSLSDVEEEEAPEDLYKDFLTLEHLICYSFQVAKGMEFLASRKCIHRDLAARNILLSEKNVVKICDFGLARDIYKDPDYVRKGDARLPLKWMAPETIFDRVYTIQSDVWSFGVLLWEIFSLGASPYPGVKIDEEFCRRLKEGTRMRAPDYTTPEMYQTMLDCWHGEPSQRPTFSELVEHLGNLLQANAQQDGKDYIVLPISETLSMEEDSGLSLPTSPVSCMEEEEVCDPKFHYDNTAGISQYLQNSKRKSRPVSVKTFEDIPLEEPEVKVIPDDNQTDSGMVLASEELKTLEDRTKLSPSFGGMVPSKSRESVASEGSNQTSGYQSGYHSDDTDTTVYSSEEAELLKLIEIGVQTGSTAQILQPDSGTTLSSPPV
Proto-oncogene tyrosine-protein kinase Src, sequence (P12931 2-536 limits assumed): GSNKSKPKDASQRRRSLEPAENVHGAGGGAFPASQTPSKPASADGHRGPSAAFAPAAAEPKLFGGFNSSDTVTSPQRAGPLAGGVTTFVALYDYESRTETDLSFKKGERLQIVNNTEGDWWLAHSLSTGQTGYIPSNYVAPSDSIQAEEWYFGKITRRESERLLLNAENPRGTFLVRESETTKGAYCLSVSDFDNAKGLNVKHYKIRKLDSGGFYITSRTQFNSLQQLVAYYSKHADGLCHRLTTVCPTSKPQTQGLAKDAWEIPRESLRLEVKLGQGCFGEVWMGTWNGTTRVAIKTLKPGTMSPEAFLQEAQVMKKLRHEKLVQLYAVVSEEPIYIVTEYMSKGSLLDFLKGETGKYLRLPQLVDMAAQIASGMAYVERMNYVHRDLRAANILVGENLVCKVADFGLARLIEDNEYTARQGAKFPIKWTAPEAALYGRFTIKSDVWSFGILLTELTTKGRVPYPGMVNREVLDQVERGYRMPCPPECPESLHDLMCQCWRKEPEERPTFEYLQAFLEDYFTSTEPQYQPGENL

`COc1cc2c(Nc3c(Cl)ccc4c3OCO4)ncnc2cc1OCC1CCN(C)CC1` showed an AUC(0-t) at 24 h in [1] of 38000 ng·h/mL.
For the compound `COc1ccc(Cl)c(Nc2ncnc3cc(OCCCN4CCOCC4)cc(OC4CCOCC4)c23)c1`, the IC50 in [2] came out at 80 nM; in data set [3], 20 nM.
For `CC(C)COc1cc(OC2CCN(C)CC2)c2c(Nc3c(Cl)ccc4c3OCO4)ncnc2c1`, the IC50 in [2] is 200 nM; in [4], more than 10000 nM; in [3] it was 7 nM. The compound also showed an AUC(0-t) at 24 h in data set [1] of 600 ng·h/mL.
`CC(C)Oc1cc(OCCCN2CCCC2)cc2ncnc(Nc3c(Cl)ccc4c3OCO4)c12`: the IC50 was 150 nM in data set [2], 1200 nM in [4] and less than 4 nM in data set [3].
On to `COc1cc(OC2CCN(C)CC2)c2c(Nc3c(Cl)ccc4c3OCO4)ncnc2c1`, for which the IC50 is 150 nM in [2], 21500 nM in data set [4] and 10 nM in [3]. Further, the pKa in data set [5] came to 8.2. Besides, the logD in data set [6] came out at 2.9. Also, in data set [7], the solubility was more than 1000 µM. For the same compound, the fraction unbound in data set [8] was 0.25. In addition, in data set [1], the AUC(0-t) at 24 h amounted to 50 ng·h/mL.
With `c1cc(Nc2ncnc3cc(OCCCN4CCCC4)cc(OC4CCOCC4)c23)c2c(c1)OCO2`, the IC50 in data set [4] came out at 100 nM; in [3], 40 nM.
`CN1CCN(CCOc2cc(OC3CCOCC3)c3c(Nc4c(Cl)ccc5c4OCCO5)ncnc3c2)CC1` came in with an IC50 in data set [3] of 65 nM.
With `Clc1ccc2c(c1Nc1ncnc3cc(OCCN4CCCC4)cc(OC4CCOCC4)c13)OCCO2`, in data set [3], half-maximal inhibition (IC50) was put at 110 nM.
For `Clc1ccc2c(c1Nc1ncnc3cccc(Oc4ccncc4)c13)OCO2`, the concentration for half-maximal inhibition (IC50) in data set [2] was 500 nM; in data set [4] it was more than 33000 nM; in [3], 55 nM.
In the case of `COc1cc(OCCCN2CCCC2)cc2ncnc(Nc3c(Cl)ccc4c3OCO4)c12`, the IC50 in data set [3] was determined as 15 nM. This counts as double-digit nanomolar.
`COc1ccc(Cl)c(Nc2ncnc3cc(OC)c(OC)cc23)c1` had a concentration for half-maximal inhibition (IC50) in data set [3] of 250 nM.
For the compound `CN1CCN(CCCOc2cc(OC3CCOCC3)c3c(Nc4c(Cl)ccc5c4OCO5)ncnc3c2)CC1`, the IC50 in data set [2] was 200 nM; in data set [4] it was 1000 nM; in data set [3] it was less than 4 nM.
For the compound `COc1ccc(Cl)c(Nc2ncnc3cc(OC)cc(OC)c23)c1`, in [3], the IC50 was determined as 3700 nM.
As for `COc1cc(Oc2ccncc2)c2c(Nc3c(Cl)ccc4c3OCO4)ncnc2c1`, the IC50 in data set [2] is 150 nM; in data set [4], 21500 nM; in [3] it was 9.5 nM. Also, the AUC(0-t) at 24 h in data set [1] turned out to be 100 ng·h/mL.
Regarding `Clc1ccc2c(c1Nc1ncnc3cc(OCCc4ccncc4)cc(OC4CCOCC4)c13)OCO2`, the IC50 in data set [2] is 70 nM; in data set [4], more than 5000 nM; in data set [3] it was 3 nM. The compound also registered a pKa in [5] of 6.4. This compound yielded a logD in [6] of more than 3.1. Moreover, the solubility in data set [7] stood at 1.5 µM (≈ 0.781 µg/mL). The fraction unbound in data set [8] was determined as 0.017. Further, the AUC(0-t) at 24 h in [1] was 6000 ng·h/mL.
For the compound `CN1CCC(Oc2cc(OCCF)cc3ncnc(Nc4c(Cl)ccc5c4OCO5)c23)CC1`, the figures for the IC50 in [2], in [4] and in data set [3] were 90 nM, more than 20000 nM and 4 nM, respectively.
On to `COc1ccc(Cl)c(Nc2ncnc3cc(OCCCN4CCOCC4)cc(OC4CCCCC4)c23)c1`, for which the results for the concentration for half-maximal inhibition (IC50) in [2], in data set [4] and in data set [3] were 2500 nM, 5500 nM and 20 nM, respectively.
The compound `COc1ccc(Cl)c(Nc2ncnc3ccc(OC)c(OC4CCN(C)CC4)c23)c1` showed an IC50 in data set [3] of 540 nM.
Consider `COc1ccc(Cl)c(Nc2ncnc3cc(OCCCN4CCN(C)CC4)cc(OC4CCOCC4)c23)c1`, for which the results for the IC50 in [2], in data set [4] and in data set [3] were 300 nM, 40 nM and less than 4 nM, respectively.
Turning to `COc1cc(OC2CCN(C)CC2)c2c(Nc3cccc4c3OCCO4)ncnc2c1`, the IC50 was found to be 500 nM in data set [4] and 570 nM in data set [3].
Take `CC(C)Oc1cc(OC2CCN(C)CC2)c2c(Nc3c(Cl)ccc4c3OCO4)ncnc2c1`: the IC50 in data set [3] is 100 nM.
`c1cc(Nc2ncnc3cc(OCCN4CCCC4)cc(OC4CCOCC4)c23)c2c(c1)OCCO2`: the IC50 in data set [4] amounted to 50 nM; in data set [3], 85 nM.
Take `COc1ccc(Cl)c(Nc2ncnc3cc(OC)cc(OCCCN4CCOCC4)c23)c1`: the IC50 in data set [3] is 230 nM. That is a sub-micromolar value.
As for `COc1ccc(Cl)c(Nc2ncnc3cc(OCCCN4CCOCC4)cc(OC(C)C)c23)c1`, in data set [2], 400 nM corresponded to half-maximal inhibition (IC50). This lies in the sub-micromolar range.
As to `CN1CCC(Oc2cccc3ncnc(Nc4c(Cl)ccc5c4OCO5)c23)CC1`, the results for the IC50 in data set [2] and in data set [3] were 700 nM and 100 nM, respectively.
As to `COc1cc(OC2CCN(C)CC2)c2c(Nc3cccc4c3OCO4)ncnc2c1`, the figures for the IC50 in data set [4] and in data set [3] were 2500 nM and 150 nM, respectively.
In the case of `COc1ccc(Cl)c(Nc2ncnc3cc(OC)cc(OC4CCN(C)CC4)c23)c1`, the IC50 is 300 nM in data set [2], more than 2000 nM in data set [4] and 30 nM in data set [3].
In the case of `COc1ccc(Cl)c(Nc2ncnc3cccc(OC4CCOCC4)c23)c1`, the concentration for half-maximal inhibition (IC50) in [3] was 400 nM.
For the compound `Clc1ccc2c(c1Nc1ncnc3cc(OCCN4CCCC4)cc(OC4CCOCC4)c13)OCO2`, the figures for the IC50 in data set [2], in [4] and in data set [3] were 300 nM, more than 10000 nM and 6 nM, respectively. This compound also displayed an AUC(0-t) at 24 h in data set [1] of 9000 ng·h/mL.
As for `COc1cc2c(Nc3c(Cl)ccc4c3OCO4)ncnc2cc1OCCCN1CCCC1`, the AUC(0-t) at 24 h in data set [1] came to 13000 ng·h/mL. For the same compound, the midpoint of inhibition in data set [3], the IC50, lay at 5 nM.
Consider `c1cc(Nc2ncnc3cc(OCCN4CCCC4)cc(OC4CCOCC4)c23)c2c(c1)OCO2`, for which the results for the IC50 in [4] and in data set [3] were 650 nM and 80 nM, respectively.
For the compound `COc1ccc(Cl)c(Nc2ncnc3cccc(OC4CCN(C)CC4)c23)c1`, the IC50 is more than 5000 nM in [4] and 300 nM in data set [3].
As for `CC(=O)N1CCN(CCOc2cc(OC(C)C)c3c(Nc4c(F)ccc5c4OCO5)ncnc3c2)CC1`, the IC50 in [2] was 290 nM; in data set [4], 6500 nM; in data set [3], 20 nM.
In the same order, the values of `Clc1ccc2c(c1Nc1ncnc3cc(OCCN4CCCC4)cc(N4CCOCC4)c13)OCO2` are 1200 nM, 5000 nM and 75 nM.
On to `COc1ccc(Cl)c(Nc2ncnc3ccc(OCCCN4CCN(C)CC4)c(OC4CCOCC4)c23)c1`, for which, in [3], it took 600 nM to reach half-maximal inhibition (IC50).
For `CC(C)Oc1cc(OCCN2CCOCC2)cc2ncnc(Nc3c(Cl)ccc4c3OCO4)c12`, the IC50 in data set [2] came out at 100 nM; in data set [4], 10000 nM; in [3] it was 5 nM. In addition, the pKa in data set [5] came out at 6.5. Moreover, the logD in data set [6] stood at 3.7. In addition, the concentration in solution in data set [7] (solubility) came to 2 µM (≈ 0.974 µg/mL). The compound further displayed a fraction unbound in data set [8] of 0.025.
Regarding `CN1CCC(COc2cccc3ncnc(Nc4c(Cl)ccc5c4OCO5)c23)CC1`, the IC50 in data set [3] turned out to be 500 nM.
Turning to `COc1ccc(Cl)c(Nc2ncnc3cc(OCCCN4CCOCC4)cc(OC4CCOC4)c23)c1` (racemic), the figures for the IC50 in data set [4] and in [3] were 50 nM and less than 4 nM, respectively.
Take `COc1ccc(Cl)c(Nc2ncnc3cc(OCC4CCN(C)CC4)c(OC)cc23)c1` [AZM-475271]: 480 nM corresponded to half-maximal inhibition in [2] (IC50). The compound further returned a pKa in [5] of 9. Further, the logD in data set [6] was found to be 2. In addition, the solubility in data set [7] was found to be 324 µM (≈ 144 µg/mL). The compound also registered a fraction unbound in data set [8] of 0.075. The T1/2 in [9] was 4.2 h. In [10], this compound had a Vdss of 43 L/kg. The same compound displayed a bioavailability in data set [11] of 42%.
